# Measured values as given in patent US20080286301A1, “Treatment of diabetes” (priority 1997, published 2008).
# Entries after “also recorded” stand apart in the source; their conditions may differ.
# How the values were obtained:
# Format in all cases: in vivo, human
# [1] = test system: subjects with remission phase Type I diabetes; test: Sustacal meal with intravenous GLIP infusion 1.2 pm/kg/min (Example 1); conditions: IV GLIP 1.2 pm/kg/min for 120 min after Sustacal meal; for gastrin levels / gastrin response: FIG. 1 Panel E
# Description: 7 subjects with remission phase Type I diabetes were studied after ingestion of a standardised meal of Sustacal (Upjohn) (delivering […]). Subjects continued their normal insulin treatment programme on the day prior to the test and, on the day of the test, omitted their morning insulin injection and arrived fasting at 8:00 am. […] Infusion was continued for 120 minutes. Blood levels of glucose, C-peptide, gastrin, glucagon and HPP were monitored by standard radioimmunoassay methods in samples taken before and at intervals during the study, up to 180 minutes. On another test day, subjects were given the Sustacal meal alone and the same analytes were similarly monitored.
# [2] = Blood levels of GLIP by radioimmunoassay after subcutaneous injection (Example 6); conditions: 50 μg GLIP sc with 5 units insulin, Type I diabetic subject; FIG. 6 Panel E
# Description: (§1) One Type 1 diabetic subject was given GLIP along with insulin and the effects on post-prandial glycaemia observed. The subject received 5 units of insulin and 50 μg GLIP as subcutaneous injections immediately prior to ingestion of a Sustacal meal as described in Example 1. Blood levels of GLIP were monitored by a standard radioimmunoassay method.
# normal volunteers = test: Sustacal meal preceded by subcutaneous injection of GLIP in normal volunteers (Example 4); conditions: 100 μg GLIP sc before Sustacal meal
# Text: Results are shown in FIG. 4. *indicates statistically significant differences between treatments (p<0.05).
# [3] = test system: subjects with remission phase Type I diabetes; test: Sustacal meal with infusion of 0.75 pm/kg/min GLIP (Example 3); conditions: versus saline infusion control, FIG. 3
# Description: Four subjects with remission phase Type I diabetes were studied during infusion with 0.75 pm/kg/min-GLIP for 120 minutes after a Sustacal meal.
# The test was conducted as described in Example 1 and blood glucose and C-peptide levels were measured. On a further test day, the subjects were studied during saline infusion after a similar Sustacal meal.
# [4] = test system: subjects with remission phase Type I diabetes; test: Intravenous glucose infusion with intravenous GLIP (Example 2); conditions: IV GLIP 1.2 pm/kg/min for 60 min along with IV glucose 20 g over 60 min; FIG. 2
# Type I diabetic subjects = test: Sustacal meal preceded by subcutaneous injection of 100 μg GLIP in Type I diabetics (Example 5); conditions: 100 μg GLIP sc prior to test meal
# Text: Type I diabetic subjects were studied.
# The results are shown in FIG. 5. *indicates statistically significant differences between treatments (p<0.05).
# Type 1 diabetic subject = test: GLIP along with insulin subcutaneously prior to Sustacal meal, post-prandial glycaemia (Example 6); conditions: 50 μg GLIP sc along with 5 units insulin (half the usual dose) prior to Sustacal meal; one subject; FIG. 6 Panel A
# Description: as §1
substance,measurement,setting,value
Glucagon-like peptide 1(7-36)amide [GLIP],blood levels of C-peptide,[1]; FIG. 1,prevented a significant increase in blood levels of C-peptide
same,plasma glucagon levels stimulated by the meal,[1]; FIG. 1,prevented the mean rise in plasma glucagon levels
same,secretion of pancreatic polypeptide (PP) after the meal,[1]; FIG. 1 Panel C,this response was absent
same,gastrin levels / gastrin response,[1],not significantly affected
same,gastrin levels / gastrin response,[1]; listed as CLIP,normal gastrin response
same,time to clearance from the blood,[2],about two
same,increase in blood levels of C-peptide,normal volunteers,delay in increase
same,increase in blood levels of HPP,normal volunteers,delay in increase
same,increase in blood levels of glucose,normal volunteers,delay in increase
same,increase in blood levels of insulin,normal volunteers,delay in increase
same,C-peptide,[3]; lower dose of GLIP (0.75 pmol/kg/min) along with a meal,some increase
same,blood glucose,[3]; lower dose of GLIP (0.75 μmol/kg/min) along with a meal,some increase; also recorded: less than in the control experiment
same,control of blood glucose level,[4],improved control of blood glucose level
same,blood glucose levels compared to control,Type I diabetic subjects; FIG. 5 Panel A,lowering of blood glucose levels
same,pancreatic polypeptide (HPP) levels,Type I diabetic subjects; FIG. 5 Panel D,delayed rise in pancreatic polypeptide (HPP) levels
same,insulin secretion over control levels,Type I diabetic subjects; FIG. 5 Panels B and C,no enhancement of insulin secretion over control levels
same,blood glucose after standard meal (highest level),Type 1 diabetic subject,≤ 8 mM
